Assay results reported in patent US10519099B2, “Cystobactamides” (priority 2014, dated 2019).
≈ marks a conversion by molar mass, not a printed value. Where two headings read alike, the source gives them in different places.

Legend:
[1] = tested on: Escherichia coli MI-4 [gyrA(S83L), parC(S80I)]; experiment: MIC microdilution, E. coli MI-4 [gyrA(S83L), parC(S80I)]; format: cell-based; conditions: read-out: MIC Escherichia coli MI-4 [gyrA(S83L), parC(S80I)]
Description: (§1) Indicator strains used in susceptibility assays were either part of our strain collection or purchased from the German Collection of Microorgansims and Cell Cultures (DSMZ) or from the American Type Culture Collection (ATCC). E. coli strain WT and corresponding E. coli mutants were kindly provided by Prof. Dr. P. Heisig, Pharmaceutical Biology and Microbiology, University of Hamburg. E. coli strains JW0401-1 (WT) and Δtsx were obtained from the CGSC collection.
(§2) MIC values were determined in standardized microdilution assays. Overnight cultures were diluted in the appropriate growth medium to achieve an inoculum of 10^4-10^6 cfu/mL. Yeasts were grown in Myc medium (1% phytone peptone, 1% glucose, 50 mM HEPES, pH 7.0), S. pneumonia and Enterococcus spp. in tryptic soy broth (TSB: 1.7% peptone casein, 0.3% peptone soymeal, 0.25% glucose, 0.5% NaCl, 0.25% K2HPO4; pH 7.3); M. smegmatis in Middlebrook 7H9 medium supplemented with 10% Middlebrook ADC enrichment and 2 ml/I glycerol). All other listed bacteria were grown in Müller-Hinton broth (0.2% beef infusion solids, 1.75% casein hydrolysate, 0.15% starch, pH 7.4). […] Growth inhibition was assessed by visual inspection and the MIC was defined as the lowest concentration of compound that inhibited visible growth.

[2] = tested on: Pseudomonas aeruginosa PA14; experiment: MIC microdilution, P. aeruginosa PA14; format: cell-based; conditions: Pseudomonas aeruginosa
Description: as §1
(§3) MIC values were determined in standardized microdilution assays. Overnight cultures were diluted in the appropriate growth medium to achieve an inoculum of 10^4-10^6 cfu/mL. Yeasts were grown in Myc medium (1% phytone peptone, 1% glucose, 50 mM HEPES, pH 7.0), S. pneumonia and Enterococcus spp. in tryptic soy broth (TSB: 1.7% peptone casein, 0.3% peptone soymeal, 0.25% glucose, 0.5% NaCl, 0.25% K2HPO4; pH 7.3); M. smegmatis in Middlebrook 7H9 medium supplemented with 10% Middlebrook ADC enrichment and 2 ml/I glycerol). All other listed bacteria were grown in Müller-Hinton broth (0.2% beef infusion solids, 1.75% casein hydrolysate, 0.15% starch, pH 7.4). Cystobactamides and reference drugs were added directly to the cultures in sterile 96-well plates as duplicates and serial dilutions were prepared. Microorganisms were grown on a microplate shaker (750 rpm, 30-37° C., 18-48 h), except S. pneumonia, which was grown at non-shaking conditions (37° C., 5% CO2, 18 h). Growth inhibition was assessed by visual inspection and the MIC was defined as the lowest concentration of compound that inhibited visible growth.

[3] = tested on: Staphylococcus epidermidis DSM-28765; experiment: MIC microdilution, Staphylococcus epidermidis DSM-28765; format: cell-based; conditions: Staphylococcus epidermidis
Description: as §1, §3

[4] = tested on: E. coli WT-III [marRΔ74bp]; experiment: MIC microdilution, E. coli WT-III [marRΔ74bp]; format: cell-based, Escherichia coli; conditions: for MIC E. coli WT-III [marRΔ74bp]: Gram-negative set; for MIC Escherichia coli WTIII (marRΔ74bp): larger panel
Description: as §1, §3

[5] = tested on: Citrobacter freundii DSM-30039; experiment: MIC microdilution, C. freundii DSM-30039; format: cell-based; conditions: Citrobacter freundii, DSM30039
Description: as §1, §3

E. coli WT = experiment: MIC microdilution, E. coli WT; format: cell-based, Escherichia coli; conditions: Escherichia coli
Description: as §1, §3

[6] = tested on: Enterococcus faecium DSM-20477; experiment: MIC microdilution, Enterococcus faecium DSM-20477; format: cell-based; conditions: Enterococcus faecium
Description: as §1, §3

[7] = tested on: Serratia marcescens DSM-30121; experiment: MIC microdilution, Serratia marcescens DSM-30121; format: cell-based; conditions: Serratia marcescens
Description: as §1, §3

[8] = tested on: Mycobacterium smegmatis ATCC700084; experiment: MIC microdilution, Mycobacterium smegmatis ATCC700084; format: cell-based; conditions: Mycolicibacterium smegmatis
Description: as §1, §2

[9] = tested on: Escherichia coli MI [gyrA(S83L)]; experiment: MIC microdilution, E. coli MI [gyrA(S83L)]; format: cell-based; conditions: read-out: MIC Escherichia coli MI [gyrA(S83L)]
Description: as §1, §2

[10] = tested on: Proteus vulgaris DSM-2140; experiment: MIC microdilution, P. vulgaris DSM-2140; format: cell-based; conditions: Proteus vulgaris, DSM2140
Description: as §1, §3

[11] = tested on: P. aeruginosa DSM-24600 (ESBL); experiment: MIC microdilution, P. aeruginosa DSM-24600 (ESBL); format: cell-based, Pseudomonas aeruginosa; conditions: Pseudomonas aeruginosa, DSM24600
Description: as §1, §3

[12] = tested on: Pseudomonas aeruginosa DSM-46316 (ESBL); experiment: MIC microdilution, P. aeruginosa DSM-46316 (ESBL); format: cell-based; conditions: Pseudomonas aeruginosa
Description: as §1, §3

[13] = tested on: Candida albicans DSM-1665; experiment: MIC microdilution, Candida albicans DSM-1665; format: cell-based
Description: as §1, §2

[14] = tested on: Escherichia coli ATCC35218; experiment: MIC microdilution, E. coli ATCC35218; format: cell-based
Description: as §1, §2

[15] = tested on: Acinetobacter baumannii DSM-30008; experiment: MIC microdilution, A. baumannii DSM-30008; format: cell-based; conditions: Acinetobacter baumannii, DSM30008
Description: as §1, §3

E. coli DSM-1116 = experiment: MIC microdilution, E. coli DSM-1116; format: cell-based, Escherichia coli; conditions: Escherichia coli, DSM1116
Description: as §1, §3

[16] = tested on: Enterobacter aerogenes DSM-30053; experiment: MIC microdilution, Enterobacter aerogenes DSM-30053; format: cell-based; conditions: Klebsiella aerogenes
Description: as §1, §2

[17] = tested on: Pseudomonas aeruginosa ATCC27853; experiment: MIC microdilution, P. aeruginosa ATCC27853; format: cell-based; conditions: Pseudomonas aeruginosa
Description: as §1, §3

[18] = tested on: Enterococcus faecalis ATCC29212; experiment: MIC microdilution, Enterococcus faecalis ATCC29212; format: cell-based
Description: as §1, §2

[19] = tested on: E. coli DSM-26863 (tolC3); experiment: MIC microdilution, E. coli DSM-26863 (tolC3); format: cell-based, Escherichia coli; conditions: Escherichia coli
Description: as §1, §3

[20] = tested on: Escherichia coli WT-3.2 [gyrA(D87G)]; experiment: MIC microdilution, E. coli WT-3.2 [gyrA(D87G)]; format: cell-based; conditions: read-out: MIC Escherichia coli WT-3.2 [gyrA(D87G)]
Description: as §1, §2

[21] = tested on: Chromobacterium violaceum DSM-30191; experiment: MIC microdilution, Chromobacterium violaceum DSM-30191; format: cell-based
Description: as §1, §2

[22] = Gram-negative set, read-out: MIC C. freundii DSM-30039
[23] = larger panel, read-out: MIC Citrobacter freundii DSM-30039
[24] = Gram-negative set, read-out: MIC E. coli WT
[25] = larger panel, read-out: MIC Escherichia coli WT
[26] = Gram-negative set, read-out: MIC P. vulgaris DSM-2140
[27] = larger panel, read-out: MIC Proteus vulgaris DSM-2140
[28] = Gram-negative set, read-out: MIC P. aeruginosa DSM-24600 (ESBL)
[29] = larger panel, read-out: MIC Pseudomonas aeruginosa DSM-24600 (ESBL)
[30] = Gram-negative set, read-out: MIC A. baumannii DSM-30008
[31] = larger panel, read-out: MIC Acinetobacter baumannii DSM-30008
[32] = Gram-negative set, read-out: MIC E. coli DSM-1116
[33] = larger panel, read-out: MIC Escherichia coli DSM-1116
[34] = DSM26863, read-out: MIC E. coli DSM-26863 (tolC3)
[35] = DSM26863, read-out: MIC Escherichia coli DSM-26863 (tolC3)

Row | SMILES | MIC [1] | MIC E. coli WT-III [marRΔ74bp] [4] | MIC Escherichia coli WTIII (marRΔ74bp) [4] | MIC [5, 22] | MIC [5, 23] | MIC (E. coli WT; [24]) | MIC (E. coli WT; [25]) | MIC [9] | MIC [10, 26] | MIC [10, 27] | MIC [11, 28] | MIC [11, 29] | MIC [15, 30] | MIC [15, 31] | MIC (E. coli DSM-1116; [32]) | MIC (E. coli DSM-1116; [33]) | MIC [19, 34] | MIC [19, 35] | MIC [20] | other results
1 | O=C(O)c1cn(C2CC2)c2cc(N3CCNCC3)c(F)cc2c1=O [CP, Ciprofloxacin, reference compound] | 0.8 µg/mL (≈ 2.41 µM) | 0.1 µg/mL (≈ 0.302 µM) | 0.1 µg/mL (≈ 0.302 µM) | 0.003 µg/mL (≈ 0.00905 µM) | 0.003 µg/mL (≈ 0.00905 µM) | 0.013 µg/mL (≈ 0.0392 µM) | 0.013 µg/mL (≈ 0.0392 µM) | 0.4 to 0.8 µg/mL (≈ 1.21 to 2.41 µM) | 0.01 µg/mL (≈ 0.0302 µM) | 0.01 µg/mL (≈ 0.0302 µM) | 3.2 µg/mL (≈ 9.66 µM) | 3.2 µg/mL (≈ 9.66 µM) | 0.8 µg/mL (≈ 2.41 µM) | 0.2 to 0.4 µg/mL (≈ 0.604 to 1.21 µM) | 0.01 µg/mL (≈ 0.0302 µM) | 0.013 µg/mL (≈ 0.0392 µM) | ≤ 0.003 µg/mL | 0.003 µg/mL (≈ 0.00905 µM) | 0.4 µg/mL (≈ 1.21 µM) | MIC ([2]; PA14, larger panel, read-out: MIC Pseudomonas aeruginosa PA14): 0.1 µg/mL (≈ 0.302 µM); MIC ([3]; DSM28765, larger panel, read-out: MIC Staphylococcus epidermidis DSM-28765): 0.2 µg/mL (≈ 0.604 µM); MIC ([6]; DSM20477, larger panel, read-out: MIC Enterococcus faecium DSM-20477): > 6.4 µg/mL; MIC ([7]; DSM30121, larger panel, read-out: MIC Serratia marcescens DSM-30121): 0.1 µg/mL (≈ 0.302 µM); MIC ([8]; ATCC700084, larger panel, read-out: MIC Mycobacterium smegmatis ATCC700084): 0.2 to 0.4 µg/mL (≈ 0.604 to 1.21 µM); MIC ([12]; DSM46316, larger panel, read-out: MIC Pseudomonas aeruginosa DSM-46316 (ESBL)): 0.1 µg/mL (≈ 0.302 µM); MIC ([13]; DSM1665, larger panel, read-out: MIC Candida albicans DSM-1665): > 6.4 µg/mL; MIC ([14]; ATCC35218, larger panel, read-out: MIC Escherichia coli ATCC35218): 0.013 µg/mL (≈ 0.0392 µM); MIC ([16]; DSM30053, larger panel, read-out: MIC Enterobacter aerogenes DSM-30053): 0.1 to 0.2 µg/mL (≈ 0.302 to 0.604 µM); MIC ([17]; ATCC27853, larger panel, read-out: MIC Pseudomonas aeruginosa ATCC27853): 0.1 to 0.2 µg/mL (≈ 0.302 to 0.604 µM); MIC ([18]; ATCC29212, larger panel, read-out: MIC Enterococcus faecalis ATCC29212): 0.8 µg/mL (≈ 2.41 µM); MIC ([21]; DSM30191, larger panel, read-out: MIC Chromobacterium violaceum DSM-30191): 0.006 to 0.013 µg/mL (≈ 0.0181 to 0.0392 µM)
2 | COC(C(N)=O)C(NC(=O)c1ccc(NC(=O)c2ccc([N+](=O)[O-])cc2)cc1)C(=O)Nc1ccc(C(=O)Nc2ccc(C(=O)Nc3ccc(C(=O)O)cc3OC(C)C)c(O)c2OC(C)C)cc1 (centres unmarked) [Cys 919-2] | 2 to 4 µg/mL (≈ 2.17 to 4.35 µM) | >64 µg/mL | 64 µg/mL (≈ 69.6 µM) | 1 µg/mL (≈ 1.09 µM) | 1 µg/mL (≈ 1.09 µM) | 0.5 µg/mL (≈ 0.544 µM) | 0.5 µg/mL (≈ 0.544 µM) | 4 µg/mL (≈ 4.35 µM) | 4 µg/mL (≈ 4.35 µM) | 4 µg/mL (≈ 4.35 µM) | 64 µg/mL (≈ 69.6 µM) | 64 µg/mL (≈ 69.6 µM) | 8 µg/mL (≈ 8.7 µM) | 8 µg/mL (≈ 8.7 µM) | 0.5 µg/mL (≈ 0.544 µM) | 1 µg/mL (≈ 1.09 µM) | 0.25 µg/mL (≈ 0.272 µM) | 0.5 to 1 µg/mL (≈ 0.544 to 1.09 µM) | 4 µg/mL (≈ 4.35 µM) | MIC ([2]; PA14, read-out: MIC Pseudomonas aeruginosa PA14): > 64 µg/mL; MIC ([3]; DSM28765, read-out: MIC Staphylococcus epidermidis DSM-28765): 0.25 µg/mL (≈ 0.272 µM); MIC ([6]; DSM20477, read-out: MIC Enterococcus faecium DSM-20477): 0.25 µg/mL (≈ 0.272 µM); MIC ([7]; DSM30121, read-out: MIC Serratia marcescens DSM-30121): > 64 µg/mL; MIC ([8]; ATCC700084, read-out: MIC Mycobacterium smegmatis ATCC700084): > 64 µg/mL; MIC ([12]; DSM46316, read-out: MIC Pseudomonas aeruginosa DSM-46316 (ESBL)): > 64 µg/mL; MIC ([13]; DSM1665, read-out: MIC Candida albicans DSM-1665): > 64 µg/mL; MIC ([14]; ATCC35218, read-out: MIC Escherichia coli ATCC35218): 1 µg/mL (≈ 1.09 µM); MIC ([16]; DSM30053, read-out: MIC Enterobacter aerogenes DSM-30053): > 64 µg/mL; MIC ([17]; ATCC27853, read-out: MIC Pseudomonas aeruginosa ATCC27853): > 64 µg/mL; MIC ([18]; ATCC29212, read-out: MIC Enterococcus faecalis ATCC29212): 0.1 µg/mL (≈ 0.109 µM); MIC ([21]; DSM30191, read-out: MIC Chromobacterium violaceum DSM-30191): 15 µg/mL (≈ 16.3 µM)
